Test results as given in patent US10286038B2, “Lysosome membrane protein 2 (LIMP-2) based peptides and related uses” (Northwestern University, priority 2016, dated 2019).
Positions count from the first letter of the chain named.

Tests used:
[1] = biological target: T1, GC in H4 cells (Homo sapiens, UniProt P04062); assay: whole cell GC activity of H4 cell lysate over the 74 hrs time course; type: cell-based; conditions: H4 cells incubated with TAT-peptide
T1 construct: Lysosomal GC activity of living H4 cells measured in vivo after incubation with uptake-optimized TAT-peptides; endogenous in cells; host or cells: H4 human neuroglioma cells (for the 74 h course: stably overexpressing α-synuclein)
T1 sequence (P04062 40-536): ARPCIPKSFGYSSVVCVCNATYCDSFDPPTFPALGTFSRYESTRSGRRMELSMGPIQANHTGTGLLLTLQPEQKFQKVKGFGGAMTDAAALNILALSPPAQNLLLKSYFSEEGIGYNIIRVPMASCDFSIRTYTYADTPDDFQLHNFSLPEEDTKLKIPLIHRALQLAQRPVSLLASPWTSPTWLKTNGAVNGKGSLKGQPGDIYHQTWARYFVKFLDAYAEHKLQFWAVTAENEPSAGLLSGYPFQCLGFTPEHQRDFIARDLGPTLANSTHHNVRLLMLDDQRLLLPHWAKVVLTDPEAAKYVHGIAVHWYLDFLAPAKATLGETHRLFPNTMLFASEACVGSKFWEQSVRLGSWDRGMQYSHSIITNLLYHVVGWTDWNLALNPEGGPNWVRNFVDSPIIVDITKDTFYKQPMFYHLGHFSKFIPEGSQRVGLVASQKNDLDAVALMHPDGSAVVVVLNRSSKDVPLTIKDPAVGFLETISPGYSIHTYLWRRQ
Experimental: FIG. 6: Characterization of a helical LIMP-2-derived peptide. […] B) In vitro peptide pulldown assay: helix 5 peptides were incubated with recombinant LAMAN and bovine serum albumin (BSA). INPUT and BOUND fractions were loaded onto SDS-PAGE and proteins visualized by coomassie staining (CBB). C) Densitometry of LAMAN and BSA protein bound to peptide, normalized to protein fraction bound to beads only (buffer; n=2-3). D) and E) Activity assay of recombinant (D) GC and (E) LAMAN incubated with different excess molarities (1×-10×) of helix 5 peptide (n=β-5) and LIMP-2 ectodomain (n=4). GC activities were normalized and statistical analyses compared to 0 input of BSA/helix 5 peptide. F) Peptide-pulldown of GC constructs overexpressed in N2a cells with subsequent Western blot analysis (α-hGC) utilizing helix 5 and the 3×D control peptide as a negative binding control. G) Densitometry of GC protein bound to peptides; each construct is normalized to buffer only. H) Live-cell lysosomal GC activity of H4 cells after uptake of helix 5 and 3×D TAT peptides. GC activity was measures every 30 minutes up to 3.5 hours. Cells were treated with DMSO or the “lysosomal inhibitor” bafilomycinA1. […] Lysosomal activity is calculated by subtracting the AUC of DMSO with the AUC of bafilomycinA1 treated samples (n=4). […] GC activity was measured from 16-74 hours and is shown in mU/mg (n=3). […]

[2] = biological target: T2, recombinant N370S mutant GC (Homo sapiens, UniProt P04062, N409S); assay: activity assay of recombinant N370S mutant GC (4-MU substrate); type: biochemical; conditions: cell-free, tenfold molar amount of peptide, relative to buffer control
T2 sequence (P04062 40-536 N409S): T1 sequence (P04062 40-536) with N370S
Text: To determine the enzymatic activity of the recombinant enzymes, lyophilized enzymes were reconstituted in the NaPi buffer described above. The lyophilized samples of wild-type GC (Cerezyme®) and the custom-made recombinant N307S mutant enzyme contain 0.01% polysorbate 80 (Tween 80) (see prescription information for Cerezyme® at the website for Cerezyme®). As indicated in our experiments, the concentration of the detergent is sufficient to support active GC enzyme and to perform the in vitro GC activity assays without adding further detergents to the reaction mix. […]
Using the fluorescent substrate 4-MU (FIG. 3K), 10 μL of the recombinant enzyme/peptide mixture (0.1 nmol GC/N370S previously incubated with 1 nmol helix 5 TAT peptide in 50 mM NaPi buffer; total incubation volume 40 μL) were incubated directly with 60 μL of 0.2 M sodium citrate buffer and 10 μL of the substrate (5 mM dissolved in 0.2 M sodium citrate buffer) in a black-bottomed 96-well dish (Nunc no. 446473; Thermo Fisher Scientific). […] The fluorescence was assessed at an excitation wavelength of 365 nm and an emission wavelength of 445 nm in a SpectraMax i3 plate reader (Molecular Devices). […]

Substance: Biotin-Ttds-KFERQLREIIEAMLKAYQQKLFVTHTVDEYGRKKRRQRRR [helix 5 TAT-peptide]
- enhancement of GC activity over the 74 hrs time course [1]: persists
- increase in the activity of the N370S mutant GC [2]: four-fold increase
